Values after ≈ are worked out from the molar mass of the structure shown. Where two headings read alike, the source gives them in different places.
What was measured:
[1] = tested on: K. pneumoniae multidrug-resistant; experiment: MIC, Gram-negative bacteria: K. pneumoniae multidrug-resistant; format: cell-based; details: Klebsiella pneumoniae, read-out: Minimal Inhibitory Concentration (MIC) K. pneumoniae multidrug-resistant
[2] = tested on: E. faecalis; experiment: MIC, Gram-positive bacteria: E. faecalis; format: cell-based; details: Enterococcus faecalis, column 1, read-out: Minimal Inhibitory Concentration (MIC) E. faecalis
[3] = tested on: P. aeruginosa ATCC 27853; experiment: MIC, Gram-negative bacteria: P. aeruginosa ATCC 27853; format: cell-based; details: Pseudomonas aeruginosa, ATCC27853, read-out: Minimal Inhibitory Concentration (MIC) P. aeruginosa ATCC 27853
[4] = tested on: P. aeruginosa MDR clinical isolate; experiment: MIC, Gram-negative bacteria: P. aeruginosa MDR clinical isolate; format: cell-based; details: Pseudomonas aeruginosa, read-out: Minimal Inhibitory Concentration (MIC) P. aeruginosa MDR clinical isolate
[5] = tested on: Gram-Negative Organisms; experiment: microbe, parasite or virus in culture; format: cell-based
[6] = tested on: S. pneumoniae; experiment: MIC, Gram-positive bacteria: S. pneumoniae; format: cell-based; details: Streptococcus pneumoniae, column 10, read-out: Minimal Inhibitory Concentration (MIC) S. pneumoniae
[7] = tested on: large subunit of the E. coli ribosome; experiment: cryo-EM structure bound to ribosome; format: binding; details: 2.8 Angstrom resolution cryo-EM; isoquinoline sidechain reaches into the P-site
From the text: FIGS. 7A-7B. […] FIG. 7B depicts the structure of SAO110224.

[8] = tested on: E. faecium VRE; vanA; experiment: MIC, Gram-positive bacteria: E. faecium VRE; vanA; format: cell-based; details: Enterococcus faecium, column 3, read-out: Minimal Inhibitory Concentration (MIC) E. faecium VRE
[9] = tested on: E. faecium ATCC 35667; experiment: MIC, Gram-positive bacteria: E. faecium ATCC 35667; format: cell-based; details: Enterococcus faecium, ATCC35667, column 2, read-out: Minimal Inhibitory Concentration (MIC) E. faecium ATCC 35667
[10] = tested on: H. influenzae ATCC 49247; experiment: MIC, Gram-negative bacteria: H. influenzae ATCC 49247; format: cell-based; details: Haemophilus influenzae, ATCC49247, read-out: Minimal Inhibitory Concentration (MIC) H. influenzae ATCC 49247
[11] = tested on: S. aureus Vat A streptogramin; experiment: MIC, Gram-positive bacteria: S. aureus Vat A streptogramin; format: cell-based; details: Staphylococcus aureus; Gram-positive; column 5; read-out: Minimal Inhibitory Concentration (MIC) S. aureus Vat A streptogramin
[12] = tested on: S. aureus Linezolid-resistant; cfr; experiment: MIC, Gram-positive bacteria: S. aureus Linezolid-resistant; cfr; format: cell-based; details: Staphylococcus aureus, column 9, read-out: Minimal Inhibitory Concentration (MIC) S. aureus Linezolid-resistant
[13] = tested on: S. aureus; experiment: MIC, Gram-positive bacteria: S. aureus (strains not named); format: cell-based; details: Staphylococcus aureus, read-out: Minimal Inhibitory Concentration (MIC) S. aureus
[14] = Acinetobacter baumannii, ATCC19606, read-out: Minimal Inhibitory Concentration (MIC), A. baumannii ATCC 19606
[15] = Escherichia coli, ATCC25922, read-out: Minimal Inhibitory Concentration (MIC), E. coli ATCC 25922
[16] = Escherichia coli, read-out: Minimal Inhibitory Concentration (MIC), E. coli BAS2006, OMP C, OMP F
[17] = Escherichia coli, read-out: Minimal Inhibitory Concentration (MIC), E. coli olC efflux defective
[18] = Escherichia coli, read-out: Minimal Inhibitory Concentration (MIC), E. coli permeability mutant BAS1314, IMP4213ZAB::TN10
[19] = Escherichia coli, read-out: Minimal Inhibitory Concentration (MIC), E. coli ΔompC768, KanR insert
[20] = Klebsiella pneumoniae, ATCC43816, read-out: Minimal Inhibitory Concentration (MIC), K. pneumoniae ATCC 43816
[21] = first unnamed S. aureus column (c4)
[22] = fourth unnamed S. aureus column (c8)
[23] = second unnamed S. aureus column (c6)
[24] = third unnamed S. aureus column (c7)

| Compound | MIC [1] [µg/mL] | MIC [2] [µg/mL] | MIC [3] [µg/mL] | MIC [4] [µg/mL] | MIC [5, 14] [µg/mL] | MIC [5, 15] [µg/mL] | MIC [5, 16] [µg/mL] | MIC [5, 17] [µg/mL] | MIC [5, 18] [µg/mL] | MIC [5, 20] [µg/mL] | MIC [6] [µg/mL] | MIC [8] [µg/mL] | MIC [9] [µg/mL] | MIC [10] [µg/mL] | MIC [11] [µg/mL] | MIC [12] [µg/mL] | MIC [13, 21] [µg/mL] | MIC [13, 22] [µg/mL] | MIC [13, 23] [µg/mL] | MIC [13, 24] [µg/mL] | other results |
| --- | --- | --- | --- | --- | --- | --- | --- | --- | --- | --- | --- | --- | --- | --- | --- | --- | --- | --- | --- | --- | --- |
| CC1=C\[C@@H](O)CC(=O)Cc2nc(co2)C(=O)N2CCC[C@@H]2C(=O)O[C@H]([C@H](C)COC(=O)Nc2cc3ccccc3cn2)[C@H](C)/C=C/C(=O)NC\C=C\1 [SA0110224] | > 64 | > 64 | > 64 | > 64 | > 64 | > 64 | 8 (≈ 11.2 µM) | 1 (≈ 1.4 µM) | 1 (≈ 1.4 µM) | > 64 | 16 (≈ 22.4 µM) | 8 (≈ 11.2 µM) | 4 (≈ 5.6 µM) | 2 (≈ 2.8 µM) | 16 (≈ 22.4 µM) | > 64 | 4 (≈ 5.6 µM) | 4 (≈ 5.6 µM) | 4 (≈ 5.6 µM) | 8 (≈ 11.2 µM) | MIC [5, 19]: > 64 µg/mL; binding to ribosome seen in cryo-EM structure [7]: bound to large subunit of the E. coli ribosome |
| CC1=C\[C@@H](O)CC(=O)Cc2nc(co2)C(=O)N[C@H](Cc2c[nH]c3ccccc23)C(=O)O[C@H](C(C)C)[C@H](C)/C=C/C(=O)NC\C=C\1 [SA0202089] | > 64 | > 64 | > 64 | > 64 | > 64 | > 64 | 32 (≈ 51.9 µM) | 16 (≈ 25.9 µM) | 8 (≈ 13 µM) | > 64 | 32 (≈ 51.9 µM) | 32 (≈ 51.9 µM) | 32 (≈ 51.9 µM) | > 64 | 64 (≈ 104 µM) | > 64 | 32 (≈ 51.9 µM) | 32 (≈ 51.9 µM) | 32 (≈ 51.9 µM) | 32 (≈ 51.9 µM) | – |
| CC1=C\[C@@H](O)CC(=O)Cc2nc(co2)C(=O)N[C@H](CCCCN)C(=O)O[C@H](C(C)C)[C@H](C)/C=C/C(=O)NC\C=C\1 [SA0202094] | > 64 | > 64 | > 64 | > 64 | > 64 | > 64 | > 64 | > 64 | 32 (≈ 57.3 µM) | > 64 | > 64 | > 64 | > 64 | > 64 | > 64 | > 64 | > 64 | > 64 | > 64 | > 64 | MIC [5, 19]: > 64 µg/mL |
| CC1=C\[C@@H](O)CC(=O)Cc2nc(co2)C(=O)N[C@H](Cc2ccc(O)cc2)C(=O)O[C@H](C(C)C)[C@H](C)/C=C/C(=O)NC\C=C\1 [SA0202097] | > 64 | > 64 | > 64 | > 64 | > 64 | > 64 | > 64 | 32 (≈ 53.9 µM) | 32 (≈ 53.9 µM) | > 64 | 64 (≈ 108 µM) | > 64 | > 64 | > 64 | > 64 | > 64 | > 64 | > 64 | > 64 | > 64 | MIC [5, 19]: > 64 µg/mL |
| CC1=C\[C@@H](O)CC(=O)Cc2nc(co2)C(=O)N2CCC[C@@H]2C(=O)O[C@H](C(C)(C)C)[C@H](C)/C=C/C(=O)NC\C=C\1 [SA0306004] | > 64 | > 64 | > 64 | > 64 | > 64 | > 64 | 4 (≈ 7.38 µM) | 4 (≈ 7.38 µM) | 4 (≈ 7.38 µM) | > 64 | 64 (≈ 118 µM) | > 64 | 32 (≈ 59.1 µM) | > 64 | > 64 | > 64 | 32 (≈ 59.1 µM) | 32 (≈ 59.1 µM) | 64 (≈ 118 µM) | 64 (≈ 118 µM) | – |
| CC1=C\[C@@H](O)C[C@@H](F)Cc2nc(co2)C(=O)N2CCC[C@@H]2C(=O)O[C@H](C(C)C)[C@H](C)/C=C/C(=O)NC\C=C\1 [flopristin, reference compound] | > 64 | > 64 | > 64 | > 64 | > 64 | 32 (≈ 60.2 µM) | 0.25 (≈ 0.47 µM) | 1 (≈ 1.88 µM) | < 0.06 | > 64 | 2 (≈ 3.76 µM) | 2 (≈ 3.76 µM) | 0.5 (≈ 0.941 µM) | 0.25 (≈ 0.47 µM) | 8 (≈ 15 µM) | > 64 | 0.5 (≈ 0.941 µM) | 0.5 (≈ 0.941 µM) | 0.5 (≈ 0.941 µM) | 1 (≈ 1.88 µM) | MIC [5, 19]: 64 µg/mL (≈ 120 µM) |
| C[C@H]1COc2c(N3CCN(C)CC3)c(F)cc3c(=O)c(C(=O)O)cn1c23 [levofloxacin] | 1 (≈ 2.77 µM) | 1 (≈ 2.77 µM) | 2 (≈ 5.53 µM) | > 8 | 0.25 (≈ 0.692 µM) | 0.015 (≈ 0.0415 µM) | – | – | – | 0.03 (≈ 0.083 µM) | 0.5 (≈ 1.38 µM) | > 8 | 4 (≈ 11.1 µM) | 0.03 (≈ 0.083 µM) | 1 (≈ 2.77 µM) | 8 (≈ 22.1 µM) | 0.25 (≈ 0.692 µM) | 2 (≈ 5.53 µM) | 0.12 (≈ 0.332 µM) | 0.25 (≈ 0.692 µM) | MIC [5, 19]: 0.015 µg/mL (≈ 0.0415 µM) |
| CC1=C\[C@@H](O)CC(=O)Cc2nc(co2)C(=O)N[C@H](C)C(=O)O[C@H](C(C)C)[C@H](C)/C=C/C(=O)NC\C=C\1 [madumycin I, Madumycin I, reference compound] | > 64 | 32 (≈ 63.8 µM) | > 64 | > 64 | > 64 | > 64 | 0.5 (≈ 0.997 µM) | 2 (≈ 3.99 µM) | 0.25 (≈ 0.498 µM) | > 64 | 4 (≈ 7.97 µM) | 4 (≈ 7.97 µM) | 2 (≈ 3.99 µM) | 8 (≈ 15.9 µM) | 64 (≈ 128 µM) | 64 (≈ 128 µM) | 8 (≈ 15.9 µM) | 4 (≈ 7.97 µM) | 8 (≈ 15.9 µM) | 8 (≈ 15.9 µM) | – |
| CC1=C\[C@@H](O)C[C@@H](O)Cc2nc(co2)C(=O)N[C@H](C)C(=O)O[C@H](C(C)C)[C@H](C)/C=C/C(=O)NC\C=C\1 [madumycin II, Madumycin II, reference compound] | > 64 | > 64 | > 64 | > 64 | > 64 | > 64 | 1 (≈ 1.99 µM) | 2 (≈ 3.97 µM) | 0.5 (≈ 0.993 µM) | > 64 | 4 (≈ 7.94 µM) | 8 (≈ 15.9 µM) | 0.5 (≈ 0.993 µM) | 1 (≈ 1.99 µM) | > 64 | > 64 | 8 (≈ 15.9 µM) | 8 (≈ 15.9 µM) | 8 (≈ 15.9 µM) | 16 (≈ 31.8 µM) | – |
| CC1=C\[C@@H](O)CC(=O)Cc2nc(co2)C(=O)N2CCC=C2C(=O)O[C@H](C(C)C)[C@H](C)/C=C/C(=O)NC\C=C\1 [virginiamycin M1, Virginiamycin M1, reference compound] | > 64 | 32 (≈ 60.9 µM) | > 64 | > 64 | > 64 | > 64 | > 64 | 2 (≈ 3.81 µM) | 0.25 (≈ 0.476 µM) | > 64 | 4 (≈ 7.61 µM) | 4 (≈ 7.61 µM) | 2 (≈ 3.81 µM) | 1 (≈ 1.9 µM) | 32 (≈ 60.9 µM) | > 64 | 4 (≈ 7.61 µM) | 2 (≈ 3.81 µM) | 2 (≈ 3.81 µM) | 8 (≈ 15.2 µM) | – |
| CC1=C\[C@@H](O)CC(=O)Cc2nc(co2)C(=O)N2CCC[C@@H]2C(=O)O[C@H](C(C)C)[C@H](C)/C=C/C(=O)NC\C=C\1 [virginiamycin M2, Virginiamycin M2, reference compound] | > 64 | > 64 | > 64 | > 64 | > 64 | > 64 | 2 (≈ 3.79 µM) | 2 (≈ 3.79 µM) | 2 (≈ 3.79 µM) | > 64 | 8 (≈ 15.2 µM) | 8 (≈ 15.2 µM) | 4 (≈ 7.58 µM) | 16 (≈ 30.3 µM) | > 64 | > 64 | 16 (≈ 30.3 µM) | 8 (≈ 15.2 µM) | 16 (≈ 30.3 µM) | 32 (≈ 60.6 µM) | – |

Source: patent publication US20200325177A1, “METHODS OF MAKING STREPTOGRAMIN COMPOSITIONS AND THE USE THEREOF” (THE REGENTS OF THE UNIVERSITY OF CALIFORNIA, priority 2017, published 2020)
